Values of other authors in US20220184095A1 (Mylan Specialty L.P., priority 2019, published 2022).

Conditions: orally delivered, humans

Cc1cnc(NC(=O)C2=C(O)c3ccccc3S(=O)(=O)N2C)s1 [meloxicam, 4-hydroxy-2-methyl-N-(5-methyl-2-thiazolyl)-2H-1,2-benzothiazine-3-carboxamide-1,1-dioxide]
Tmax (time to reach maximum concentration): 4 to 6 h | time to reach the therapeutic concentration that enables the onset of action: 2 to 3 h
